Test results: PMC12005787, “Synthetic Lethality of SHP2 and XIAP Suppresses Proliferation and Metastasis in KRAS‐mutant Nonsmall Cell Lung Cancer” (Advanced Science, 2025)

How the values were obtained:
XIAP = target: T1, XIAP (Homo sapiens, UniProt P98170); assay: Cellular thermal shift assay (CETSA); assay type: binding; settings: 56 and 62 ℃
T1 construct: endogenous in cells; host or cells: NCI-H2122
Description: (§1) NCI‐H2122 cells were harvested and resuspended with pre‐cooled PBS containing 1% cocktail, which was then frozen in liquid nitrogen for 5 min and thawed in a water bath at 37 °C for 5 min for three repetitions. The supernatant was collected via centrifugation at 4 °C (15 000 × g, 20 min), divided into two equal portions; one was added with test drugs or various concentrations of embelin, and the other was added with DMSO as control and subsequently incubated at 25 °C for 30 min. All samples were heated at temperatures ranging from 52–70 °C for 3 min, and subsequently in an ice bath for 3 min and collected by centrifugation at 4 °C (15 000 × g, 20 min), and added with protein sampling buffer at 100 °C for 5 min, followed by analysis of protein stability using western blotting.

[1] = system: cancer cell lines that contain different RAS mutations; assay: Average sensitivity of cancer cell line panel by RAS mutation status; assay type: cell-based
Description: Inhibitory effects of embelin on KRAS-mutant and wild-type cells are listed in Supplementary Table S7.
For the adherent cell viability assay, cells in the logarithmic growth phase were seeded in 96-well culture plates at a density of 5×103 well-1 and incubated overnight. Diluted compounds or DMSO were added, or specific treatments were incubated at 37 °C and 5% CO2 for 24 h or 48 h. Cell viability was determined using CCK-8 or CellLightTM Cell Viability Assay Kit, according to the manufacturer's protocol. The luminescence signals of the treated samples were normalized to those of the DMSO group. […]

SHP2 = target: T2, SHP2 (Homo sapiens, UniProt Q06124); assay: Cellular thermal shift assay (CETSA); assay type: binding; settings: NCI‐H2122 cell lysate
T2 construct: endogenous in cells; host or cells: NCI-H2122
T2 sequence (Q06124 1-593): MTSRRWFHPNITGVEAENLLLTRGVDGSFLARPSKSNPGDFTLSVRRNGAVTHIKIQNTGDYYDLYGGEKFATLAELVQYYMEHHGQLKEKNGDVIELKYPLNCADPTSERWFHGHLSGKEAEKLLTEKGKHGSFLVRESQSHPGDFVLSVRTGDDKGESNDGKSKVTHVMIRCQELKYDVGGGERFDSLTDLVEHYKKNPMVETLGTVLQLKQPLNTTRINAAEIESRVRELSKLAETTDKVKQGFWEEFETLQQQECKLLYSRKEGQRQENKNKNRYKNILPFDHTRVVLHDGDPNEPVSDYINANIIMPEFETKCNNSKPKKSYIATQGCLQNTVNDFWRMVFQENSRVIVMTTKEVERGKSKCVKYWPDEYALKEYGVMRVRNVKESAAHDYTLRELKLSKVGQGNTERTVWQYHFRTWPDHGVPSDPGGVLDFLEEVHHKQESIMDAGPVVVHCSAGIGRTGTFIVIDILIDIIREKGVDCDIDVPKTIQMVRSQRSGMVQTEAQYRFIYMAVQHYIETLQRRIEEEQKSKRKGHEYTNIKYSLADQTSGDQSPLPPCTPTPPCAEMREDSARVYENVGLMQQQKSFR
Description: as §1

NCI‐H2122 and A549 cells = assay: Intracellular ATP assay; assay type: cell-based, human; settings: monolayer 24 h and 3D culture 48 h
Description: supplies are listed in Supplementary Table S5. […]
For the adherent cell viability assay, cells in the logarithmic growth phase were seeded in 96-well culture plates at a density of 5×103 well-1 and incubated overnight. Diluted compounds or DMSO were added, or specific treatments were incubated at 37 °C and 5% CO2 for 24 h or 48 h. Cell viability was determined using CCK-8 or CellLightTM Cell Viability Assay Kit, according to the manufacturer's protocol. The luminescence signals of the treated samples were normalized to those of the DMSO group.
For spherical cell viability assays, cells in the logarithmic growth phase were inoculated ata density of 4×10^3 well-1 into 96-well spherical cell microplates and incubated at 37 °C, 5% CO2 for 24 h or 48 h. Cell viability was measured using the CellTiter-Glo® Luminescent Cell Viability 3D Cell Viability Assay Kit, according to the manufacturer’s protocol. The remaining steps were the same as those described above. […]

ΔSHP2^K325A = target: T3, ΔSHP2^K325A (Homo sapiens, UniProt Q06124, K325A); assay: PTP activity assay of K325A mutant; assay type: biochemical
T3 construct: His‐ΔSHP2, encompassing the peptide from amino acids 205–593 retaining PTP activity; His; made in house; host or cells: E. coli BL21
T3 sequence (Q06124 205-593 K325A): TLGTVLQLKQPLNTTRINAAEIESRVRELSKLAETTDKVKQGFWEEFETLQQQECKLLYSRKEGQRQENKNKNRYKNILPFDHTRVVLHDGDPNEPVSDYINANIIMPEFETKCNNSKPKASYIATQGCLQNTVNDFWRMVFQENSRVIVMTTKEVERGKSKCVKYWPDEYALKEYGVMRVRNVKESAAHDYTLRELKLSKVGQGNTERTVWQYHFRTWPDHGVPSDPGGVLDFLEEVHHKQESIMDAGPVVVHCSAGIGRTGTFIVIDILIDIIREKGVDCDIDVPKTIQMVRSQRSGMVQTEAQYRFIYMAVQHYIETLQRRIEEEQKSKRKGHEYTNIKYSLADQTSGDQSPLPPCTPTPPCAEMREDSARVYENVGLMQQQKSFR
Description: Catalytic activity screening methods for PTPs using candidate compounds were performed as previously described.^[ [77] ^] In brief, soluble fusion PTP proteins, His‐ΔSHP2, encompassing the peptide from amino acids 205–593 retaining PTP activity, His‐ΔSHP2^K325A, His‐ΔSHP1, encompassing the peptide from amino acids 202–595 retaining PTP activity, His‐PTP1B, His‐HePTP, His‐VHR, and His‐TCPTP were cloned, expressed, and purified in E. coli. After determining protein concentration using bicinchoninic acid (BCA) assay kit, 1 µg fusion protein, 10 µM library compound were added in 100 µL reaction mixture (55 mM 4‐(2‐hydroxyethyl)‐1‐piperazineethanesulfonic acid [HEPES], 100 mM sodium chloride [NaCl], 0.5 mM ethylenediaminetetraacetic acid [EDTA], 1 mM dithiothreitol [DTT], 0.01% Triton X‐100, 0.002% bovine serum albumin [BSA], and 0.1% dimethyl sulfoxide [DMSO]) and incubated at 37 °C for 30 min in the dark, with Na3VO4 as positive control. The detection substrate DiFMUP (50 µM) was promptly added to each reaction and functioned at 37 °C for 30 min in the dark. The fluorescence intensity was then measured using Multimode Plate Reader (λa = 358 nm, λe = 455 nm, PerkinElmer, USA).
A single‐point mutation assay of the pET32a‐ΔSHP2 plasmid was performed using the QuickMutation Site‐Directed Mutagenesis Kit (Beyotime, Shanghai, China). […]

SHP2 in NCI‐H2122 cells = target: T4, SHP2 in NCI‐H2122 cells (Homo sapiens, UniProt Q06124); assay: Intracellular SHP2 activity (IP and DiFMUP); assay type: cell-based
T4 construct: endogenous in cells; host or cells: NCI-H2122
Description: To test intracellular SHP2 activity, the extract of NCI‐H2122 cells was precleared with protein A/G agarose beads and incubated with anti‐SHP2 antibody overnight at 4 °C, followed by further incubation with protein A/G agarose beads for 2 h at 4 °C. The Iimmunoprecipitates were suspended in sample buffer and detected in 96‐well black polystyrene plates using the fluorescent substrate DiFMUP under the same conditions as described above.

T1 sequence (P98170 whole entry): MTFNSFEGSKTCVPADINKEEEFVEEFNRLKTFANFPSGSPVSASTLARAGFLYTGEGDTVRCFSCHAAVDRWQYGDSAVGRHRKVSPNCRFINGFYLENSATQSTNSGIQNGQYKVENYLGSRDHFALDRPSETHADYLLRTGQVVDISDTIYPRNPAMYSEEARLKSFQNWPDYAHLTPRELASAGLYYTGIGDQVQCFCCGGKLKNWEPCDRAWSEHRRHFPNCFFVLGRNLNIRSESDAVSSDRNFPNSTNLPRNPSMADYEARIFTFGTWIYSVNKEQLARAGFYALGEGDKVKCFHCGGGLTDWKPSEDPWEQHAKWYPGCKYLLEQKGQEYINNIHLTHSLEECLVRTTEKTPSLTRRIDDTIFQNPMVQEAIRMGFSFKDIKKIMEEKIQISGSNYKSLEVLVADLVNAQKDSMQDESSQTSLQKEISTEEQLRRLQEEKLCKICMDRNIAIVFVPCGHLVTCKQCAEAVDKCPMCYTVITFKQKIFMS

Row | IC50 ([1]; HRAS mutants) | IC50 ([1]; NRAS mutant strain) | IC50 ([1]; RAS wild‐type cell lines) | IC50 ([1]; cell lines with KRAS mutations) | effect on SHP2 protein stability (CETSA) (SHP2) | inhibitory effect on activity of ΔSHP2^K325A versus wild-type ΔSHP2 (ΔSHP2^K325A) | effect on intracellular SHP2 activity (SHP2 in NCI‐H2122 cells) | SMILES | effect on XIAP protein stability (CETSA) (XIAP) | effect on intracellular ATP (NCI‐H2122 and A549 cells)
1 |  |  |  |  |  |  |  | CC1(N)CCN(c2cnc(-c3cccc(Cl)c3Cl)c(N)n2)CC1 [SHP099] | did not affect XIAP protein stability | 
2 | 44 µM | 19.6 µM | 30.8 µM | 16.9 µM | increased the stability of SHP2 protein | notably diminished the inhibitory effect | significantly inhibited | CCCCCCCCCCCC1=C(O)C(=O)C=C(O)C1=O [Embelin] |  | significantly inhibited ATP release
